Key:
AXL = target: T1, AXL (Homo sapiens, UniProt P30530); test: TR-FRET kinase activity assay, AXL; assay type: biochemical; settings: ATP at Km, 60 minutes
T1 sequence (P30530 26-894): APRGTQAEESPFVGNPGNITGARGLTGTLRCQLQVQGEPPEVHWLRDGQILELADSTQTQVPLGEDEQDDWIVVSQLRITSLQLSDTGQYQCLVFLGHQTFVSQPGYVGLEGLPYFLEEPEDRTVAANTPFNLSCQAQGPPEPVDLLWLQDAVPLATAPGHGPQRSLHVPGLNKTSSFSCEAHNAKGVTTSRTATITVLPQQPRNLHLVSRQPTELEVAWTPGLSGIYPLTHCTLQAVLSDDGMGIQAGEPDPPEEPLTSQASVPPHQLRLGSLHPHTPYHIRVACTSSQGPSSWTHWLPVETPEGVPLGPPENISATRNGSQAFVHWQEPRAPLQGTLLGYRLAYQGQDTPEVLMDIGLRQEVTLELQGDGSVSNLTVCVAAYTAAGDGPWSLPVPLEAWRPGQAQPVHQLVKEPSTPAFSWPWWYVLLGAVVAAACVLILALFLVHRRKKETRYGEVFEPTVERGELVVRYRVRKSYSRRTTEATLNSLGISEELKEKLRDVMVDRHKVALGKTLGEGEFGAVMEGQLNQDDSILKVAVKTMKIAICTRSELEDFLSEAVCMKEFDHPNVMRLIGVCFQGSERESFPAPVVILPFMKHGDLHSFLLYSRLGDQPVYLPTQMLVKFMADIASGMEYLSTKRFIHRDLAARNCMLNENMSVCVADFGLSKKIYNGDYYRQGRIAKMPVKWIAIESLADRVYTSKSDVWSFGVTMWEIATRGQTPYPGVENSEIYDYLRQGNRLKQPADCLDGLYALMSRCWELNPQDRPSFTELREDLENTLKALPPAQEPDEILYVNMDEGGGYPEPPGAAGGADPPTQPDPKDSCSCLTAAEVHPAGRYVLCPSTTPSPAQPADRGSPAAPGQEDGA
Outline: (§1)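 Recombinant human kinases, fluorescent peptide substrate, ATP at Km; 1 h RT, pH 7.5. EDTA-quenched, Eu antibody added, TR-FRET read; IC50 determined.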

MERTK = target: T2, MERTK (Homo sapiens, UniProt Q12866); test: TR-FRET kinase activity assay, MERTK; assay type: biochemical; settings: for IC50: TR-FRET activity assay, ATP at Km, 60 minutes, read-out: Mer IC50; for FLT3/Mer ratio (FLT3 IC50/Mer IC50): ratio of Mer to FLT3: FLT3 IC50/Mer IC50
T2 sequence (Q12866 21-999): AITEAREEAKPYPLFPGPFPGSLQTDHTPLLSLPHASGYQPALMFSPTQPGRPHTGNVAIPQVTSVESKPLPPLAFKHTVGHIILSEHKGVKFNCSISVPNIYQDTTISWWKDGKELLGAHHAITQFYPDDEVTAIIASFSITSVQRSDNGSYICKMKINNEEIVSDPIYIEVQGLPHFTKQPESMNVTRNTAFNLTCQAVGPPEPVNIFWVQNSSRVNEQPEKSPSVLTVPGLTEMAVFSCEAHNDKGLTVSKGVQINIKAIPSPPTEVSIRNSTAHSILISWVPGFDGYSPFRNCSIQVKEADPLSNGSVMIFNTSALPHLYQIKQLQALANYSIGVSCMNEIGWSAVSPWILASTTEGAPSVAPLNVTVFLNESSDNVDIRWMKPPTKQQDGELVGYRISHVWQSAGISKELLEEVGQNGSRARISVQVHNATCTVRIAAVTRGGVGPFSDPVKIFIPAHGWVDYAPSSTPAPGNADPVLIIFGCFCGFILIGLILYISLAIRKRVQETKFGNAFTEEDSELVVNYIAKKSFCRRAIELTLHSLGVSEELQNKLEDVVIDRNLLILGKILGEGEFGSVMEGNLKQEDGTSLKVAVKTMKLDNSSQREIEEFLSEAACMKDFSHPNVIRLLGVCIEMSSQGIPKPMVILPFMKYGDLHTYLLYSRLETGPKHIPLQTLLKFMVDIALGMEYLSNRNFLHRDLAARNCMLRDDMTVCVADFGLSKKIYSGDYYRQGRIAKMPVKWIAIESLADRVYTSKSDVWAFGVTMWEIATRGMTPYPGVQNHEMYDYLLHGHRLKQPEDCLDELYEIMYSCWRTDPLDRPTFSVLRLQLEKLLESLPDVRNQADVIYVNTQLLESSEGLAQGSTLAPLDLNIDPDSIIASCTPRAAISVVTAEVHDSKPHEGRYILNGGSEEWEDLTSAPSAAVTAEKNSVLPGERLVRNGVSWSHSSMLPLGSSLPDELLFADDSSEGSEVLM
Outline: as §1

SMILES	IC50 (AXL) [nM]	IC50 (MERTK) [nM]	FLT3/Mer ratio (FLT3 IC50/Mer IC50) (MERTK)
Cc1nnc(Cn2cc(-c3cc([C@H]4CC[C@H](O)CC4)n4nc(N[C@@H](C)CC(F)(F)F)ncc34)cn2)o1 [Compound 296]	≤ 100	≤ 100	++ (“++” represents a ratio of between 10 and 100)
CNC(=O)C(C)(C)n1cc(-c2cc([C@H]3CC[C@H](O)CC3)n3nc(N[C@@H](C)COC)ncc23)cn1 [Compound 295]	≤ 100	≤ 100	+++ (“+++” represents a ratio of >100)
COC[C@H](C)Nc1ncc2c(-c3ccnc(N4CCNC(=O)C4)c3)cc([C@H]3CC[C@H](O)CC3)n2n1 [Compound 340]	≤ 100	≤ 100	+++ (“+++” represents a ratio of >100)
CNC(=NC#N)N[C@H]1CC[C@H](c2cc(-c3ccc(CN4CCOCC4)cc3)c3cnc(N[C@@H](C)COC)nn32)CC1 [Compound 307]	≤ 100	≤ 100	+++ (“+++” represents a ratio of >100)
COC[C@H](C)Nc1ncc2c(-c3cnn(CCS(C)(=O)=O)c3)cc([C@H]3CC[C@H](O)CC3)n2n1 [Compound 280]	≤ 100	≤ 100	+++ (“+++” represents a ratio of >100)
CC(CC(F)(F)F)Nc1ncc2c(-c3cncc(S(C)(=O)=O)c3)cc(C3CCC(O)CC3)n2n1 (stereo not drawn) [Compound 273]	≤ 100	≤ 100	+++ (“+++” represents a ratio of >100)
COC[C@H](C)Nc1ncc2c(-c3ccnc(N4CCCC4)c3)cc([C@H]3CC[C@H](O)CC3)n2n1 [Compound 339]	≤ 100	≤ 100	+++ (“+++” represents a ratio of >100)
COC[C@H](C)Nc1ncc2c(-c3cnn(Cc4ccc(S(C)(=O)=O)cc4)c3)cc([C@H]3CC[C@H](O)CC3)n2n1 [Compound 314]	≤ 100	≤ 100	+++ (“+++” represents a ratio of >100)
COC[C@H](C)Nc1ncc2c(-c3cnn(C4CCS(=O)(=O)CC4)c3)cc([C@H]3CC[C@H](O)CC3)n2n1 [Compound 323]	≤ 100	≤ 100	+++ (“+++” represents a ratio of >100)
COC[C@H](C)Nc1ncc2c(-c3cnn(Cc4nc(C)no4)c3)cc([C@H]3CC[C@H](O)CC3)n2n1 [Compound 292]	≤ 100	≤ 100	+++ (“+++” represents a ratio of >100)
CNS(=O)(=O)c1cncc(-c2cc([C@H]3CC[C@H](O)CC3)n3nc(N[C@@H](C)COC)ncc23)c1 [Compound 272]	100 to 1000	≤ 100	+++ (“+++” represents a ratio of >100)
COC[C@H](C)Nc1ncc2c(-c3cnn(C4CC(C(=O)OC)C4)c3)cc([C@H]3CC[C@H](O)CC3)n2n1 (stereo partly drawn) [Compound 330]	≤ 100	≤ 100	+++ (“+++” represents a ratio of >100)
CNS(=O)(=O)c1ccc(-c2cc([C@H]3CC[C@H](O)CC3)n3nc(N[C@@H](C)COC)ncc23)cn1 [Compound 336]	≤ 100	≤ 100	+++ (“+++” represents a ratio of >100)

The remaining lines, values ahead:

IC50 (AXL) [nM]	IC50 (MERTK) [nM]	FLT3/Mer ratio (FLT3 IC50/Mer IC50) (MERTK)	SMILES
≤ 100	≤ 100	+++ (“+++” represents a ratio of >100)	COC[C@H](C)Nc1ncc2c(-c3cnn(Cc4cnc(C)cn4)c3)cc([C@H]3CC[C@H](O)CC3)n2n1 [Compound 306]
≤ 100	≤ 100	+++ (“+++” represents a ratio of >100)	COC[C@H](C)Nc1ncc2c(-c3cnn(C4CN(C(=O)C5(C(F)(F)F)CC5)C4)c3)cc([C@H]3CC[C@H](O)CC3)n2n1 [Compound 294]
≤ 100	≤ 100	+++ (“+++” represents a ratio of >100)	COC[C@H](C)Nc1ncc2c(-c3cnn(C4CC(S(C)(=O)=O)C4)c3)cc([C@H]3CC[C@H](O)CC3)n2n1 (stereo partly drawn) [Compound 287]
≤ 100	≤ 100	+++ (“+++” represents a ratio of >100)	COC[C@H](C)Nc1ncc2c(-c3ccnc(N4CCN(C(C)=O)CC4)c3)cc([C@H]3CC[C@H](O)CC3)n2n1 [Compound 344]
≤ 100	≤ 100	+++ (“+++” represents a ratio of >100)	COC[C@H](C)Nc1ncc2c(-c3cnn(Cc4noc(C)n4)c3)cc([C@H]3CC[C@H](O)CC3)n2n1 [Compound 285]
≤ 100	≤ 100	+++ (“+++” represents a ratio of >100)	COC[C@H](C)Nc1ncc2c(-c3cnn(C(C)(C)C(=O)N4C[C@@H](C)O[C@@H](C)C4)c3)cc([C@H]3CC[C@H](O)CC3)n2n1 [Compound 320]
≤ 100	≤ 100	+++ (“+++” represents a ratio of >100)	COC[C@H](C)Nc1ncc2c(-c3cnn(C[C@H]4CCC(=O)N4)c3)cc([C@H]3CC[C@H](O)CC3)n2n1 [Compound 324]
≤ 100	≤ 100	+++ (“+++” represents a ratio of >100)	COC[C@H](C)Nc1ncc2c(-c3cnn(C4CN(CC(F)(F)F)C4)c3)cc([C@H]3CC[C@H](O)CC3)n2n1 [Compound 302]
≤ 100	≤ 100	+++ (“+++” represents a ratio of >100)	CNC(=O)c1cncc(-c2cc([C@H]3CC[C@H](O)CC3)n3nc(N[C@@H](C)CC(F)(F)F)ncc23)c1 [Compound 304]
≤ 100	≤ 100	+++ (“+++” represents a ratio of >100)	COC[C@H](C)Nc1ncc2c(-c3cnn(C(C)(C)C(=O)N4C[C@H](C)O[C@@H](C)C4)c3)cc([C@H]3CC[C@H](O)CC3)n2n1 [Compound 328]
≤ 100	≤ 100	+++ (“+++” represents a ratio of >100)	CNS(=O)(=O)c1cncc(-c2cc([C@H]3CC[C@H](O)CC3)n3nc(N[C@@H](C)CC(F)(F)F)ncc23)c1 [Compound 278]
